Source: US8129527B2, “Analogs of dehydrophenylahistins and their therapeutic use” (Nereus Pharmacuticals, Inc., priority 2006, dated 2012)
Like-named read-outs stand apart in the source and are kept apart here.

Experiments:
HT-29 human colon cells = assay: Tumor cytotoxicity assay, resazurin fluorescence, 48 h (Example 6); type: cell-based; conditions: Homo sapiens
[1] = system: B16-F10 (murine melanoma); assay: Tumor panel screen cytotoxicity (Example 10A); type: cell-based
Source text: (§1) Cells were maintained at subconfluent densities in their respective culture media.

[2] = system: CCD-27sk (normal human fibroblast); assay: Tumor panel screen cytotoxicity (Example 10A); type: cell-based; conditions: CCD-27sk Fibroblast
Source text: as §1

HT29 (human colon tumor) = assay: Tumor panel screen cytotoxicity (Example 10A); type: cell-based
Source text: as §1

[3] = system: MDA-MB-231 (human breast tumor); assay: Tumor panel screen cytotoxicity (Example 10A); type: cell-based; conditions: MDA-MB-231 Breast
Source text: as §1

[4] = system: NCI-H292 (human non-small cell lung tumor); assay: Tumor panel screen cytotoxicity (Example 10A); type: cell-based; conditions: maximum cytotoxic effect
Source text: as §1

[5] = system: OVCAR-3 (human ovarian tumor); assay: Tumor panel screen cytotoxicity (Example 10A); type: cell-based; conditions: OVCAR-3 Ovary
Source text: as §1

[6] = system: PC3 (human prostate tumor); assay: Tumor panel screen cytotoxicity (Example 10A); type: cell-based; conditions: PC-3 Prostate
Source text: as §1

[7] = system: MES-SA (Taxol Sensitive) human uterine sarcoma; assay: Drug resistant cell line pair, cytotoxicity (Example 10B); type: cell-based; conditions: Homo sapiens, MES-SA, CsA Pretreat, Studies II-III in separate lines
Source text: (§2) 1) Human Uterine Sarcoma Tumor Cell Line Pair: MES-SA (Taxol Sensitive) and MES-SA/Dx5 (Taxol Resistant).

[8] = system: MES-SA/Dx5 (Taxol Resistant) human uterine sarcoma; assay: as above; type: cell-based; conditions: Homo sapiens, MES-SA/Dx5, MES-SA/DX5 Resistant, CsA Pretreat; Studies II-III in separate lines
Source text: as §2

[9] = system: HL-60/MX-2 (Mitoxantrone-Resistant); assay: as above; type: cell-based, human; conditions: Homo sapiens, HL60/MX2; HL-60 Resistant (HL-60/MX-2)
Source text: 2) Human Acute Promyelocytic Leukemia Cell Line Pair: HL-60 (Mitoxantrone-Sensitive) and HL-60/MX-2 (Mitoxantrone-Resistant)

[10] = system: MCF-7 (Taxol Sensitive) human breast carcinoma; assay: as above; type: cell-based; conditions: Homo sapiens, MCF7/Taxol, read-out: MCF-7 Sensitive IC50 nM
Source text: (§3) 3). Human Breast Carcinoma Cell Line Pair: MCF-7 (Taxol Sensitive) and MCF-7/ADR (Taxol Resistant)

[11] = system: MCF-7/ADR (Taxol Resistant) human breast carcinoma; assay: as above; type: cell-based; conditions: Homo sapiens, NCI/ADR-RES, read-out: MCF-7/ADR Resistant IC 50 nM
Source text: as §3

[12] = system: human prostate tumor cells; assay: Induction of apoptosis, morphological changes; type: cell-based
Source text: Apoptosis and its dysregulation play an important role in oncology; the selective induction of the programmed cell death cycle in tumor cells is the goal of many chemotherapeutic drug discovery programs.
The characteristic signs of apoptotic cell death include cell membrane blebbing, disruption of nuclei, cell shrinkage and condensation and finally cell death, very distinctive from necrotic cell death. […] A similar finding was also clear in the treatment of HuVEC cells with KPU-2.

[13] = system: Jurkat cells (human T cell leukemia line); assay: DNA fragmentation (DNA laddering); type: cell-based
Source text: A late stage characteristic of apoptosis is internucleosomal DNA cleavage that results in a distinctive ladder pattern that can be visualized by gel electrophoresis.

PARP in Jurkat cells = assay: Cleavage of poly(ADP-ribose)polymerase (PARP), western blotting; type: cell-based, human; conditions: 100 nM, 10 hours after exposure
Source text: In order to assess the ability of these compounds to induce apoptosis in Jurkat cells, cleavage of poly(ADP-ribose)polymerase (PARP) was monitored. […] The cleavage of PARP generates a stable 89 kDa product, and this process can be easily monitored by western blotting.

[14] = biological target: panel of 60 different kinases; assay: Broad kinase screen, primary screen; type: biochemical; conditions: 10 μM compound, ATP 10 μM, 60 kinases
[15] = system: B16-F10 murine melanoma cells; assay: B16-F10 Metastatic Murine Melanoma Model; type: in vivo, B6D2F1 mice; conditions: monotherapy, lung surface metastases day 16
Protocol: The animals used were: female nude mice (nu/ni) (MDA-231 study) or B6D2F1 (B16-F10 studies) mice between 5 and 6 weeks of age (˜20 g, Harlan); group size was 10 mice per group unless otherwise indicated.
The cell lines used were: MDA-MB-231 human breast tumor and B16-F10 murine melanoma cells.
NPI compounds were administered as monotherapy via the intraperitoneal route at the doses indicated for the individual study; for the combination studies the selected reference chemotherapy agents were injected 15-30 min prior to the NPI compound.
Mice received B16-F10 cells (prepared from an in vitro cell culture of B16-F10 cells) by the iv route on Day 0. On Day 1 mice were randomized into treatment and control groups and treatment commenced. Mice were weighed twice weekly, starting on Day 1. All mice are sacrificed on Day 16, the lungs removed, weighed and the surface colonies counted. Results are expressed as mean colonies of treated mice/mean colonies of control mice (T/C)×100%). The metastasis growth inhibition (MGI) is this number subtracted from 100%. Paclitaxel was the standard chemotherapy agent used in this study.
In this model unless otherwise noted for the individual study, the test compounds were administered via the intraperitoneal route on Days 1-5 (qdx5); paclitaxel was administered intravenously on Days 1-5(qdx5).

[16] = system: bovine brain microtubule protein; assay: Tubulin polymerization assay, turbidity (Example 21); type: biochemical; conditions: 5 μM in 1% DMSO
Protocol: Polymerization of bovine brain microtubule protein (Cytoskeleton, Inc., Denver, Colo.) was monitored by an increase in turbidity at 37° C. in microtubule buffer (80 mM PIPES, pH 6.8, 1 mM MgCl2, 1 mM EGTA, 1 mM GTP, 10% glycerol). […] Turbidity was measured as an increase in optical density at 340 nm with a thermo-controlled spectrophotometer (model 680XR microplate Reader™, Bio-Rad Laboratories).

c-RAF (human) = c-RAF (human) (Homo sapiens, UniProt P04049); conditions: ATP 10 μM
CDK1/Cyclin B (human) = CDK1/Cyclin B (human) (Homo sapiens, UniProt P06493); assay: biochemical
HuVEC = assay: Action on microtubule function, α-tubulin staining; conditions: 2 μM, thirty minutes exposure

CDK1/Cyclin B (human), sequence (P06493 whole entry): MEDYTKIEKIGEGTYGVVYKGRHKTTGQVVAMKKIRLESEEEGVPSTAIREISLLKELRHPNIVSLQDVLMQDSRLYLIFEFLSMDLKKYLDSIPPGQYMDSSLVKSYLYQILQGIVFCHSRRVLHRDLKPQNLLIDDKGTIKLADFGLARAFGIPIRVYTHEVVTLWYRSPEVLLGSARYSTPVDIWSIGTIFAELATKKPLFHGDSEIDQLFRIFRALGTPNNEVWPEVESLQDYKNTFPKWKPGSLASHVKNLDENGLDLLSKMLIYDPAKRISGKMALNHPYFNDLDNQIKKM
CDK1/Cyclin B (human), sequence (P14635 whole entry partner): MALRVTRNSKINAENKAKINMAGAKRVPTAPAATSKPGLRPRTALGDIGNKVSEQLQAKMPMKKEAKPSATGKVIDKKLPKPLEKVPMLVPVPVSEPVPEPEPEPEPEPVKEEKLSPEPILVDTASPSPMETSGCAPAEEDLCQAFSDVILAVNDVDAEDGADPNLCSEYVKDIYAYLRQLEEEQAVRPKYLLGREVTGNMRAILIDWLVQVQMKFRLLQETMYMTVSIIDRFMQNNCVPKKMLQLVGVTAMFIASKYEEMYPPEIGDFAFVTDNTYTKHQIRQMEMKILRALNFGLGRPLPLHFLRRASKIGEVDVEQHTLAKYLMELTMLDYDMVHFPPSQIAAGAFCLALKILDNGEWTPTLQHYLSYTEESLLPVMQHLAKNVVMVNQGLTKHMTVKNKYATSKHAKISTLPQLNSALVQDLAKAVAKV
c-RAF (human), sequence (P04049 whole entry): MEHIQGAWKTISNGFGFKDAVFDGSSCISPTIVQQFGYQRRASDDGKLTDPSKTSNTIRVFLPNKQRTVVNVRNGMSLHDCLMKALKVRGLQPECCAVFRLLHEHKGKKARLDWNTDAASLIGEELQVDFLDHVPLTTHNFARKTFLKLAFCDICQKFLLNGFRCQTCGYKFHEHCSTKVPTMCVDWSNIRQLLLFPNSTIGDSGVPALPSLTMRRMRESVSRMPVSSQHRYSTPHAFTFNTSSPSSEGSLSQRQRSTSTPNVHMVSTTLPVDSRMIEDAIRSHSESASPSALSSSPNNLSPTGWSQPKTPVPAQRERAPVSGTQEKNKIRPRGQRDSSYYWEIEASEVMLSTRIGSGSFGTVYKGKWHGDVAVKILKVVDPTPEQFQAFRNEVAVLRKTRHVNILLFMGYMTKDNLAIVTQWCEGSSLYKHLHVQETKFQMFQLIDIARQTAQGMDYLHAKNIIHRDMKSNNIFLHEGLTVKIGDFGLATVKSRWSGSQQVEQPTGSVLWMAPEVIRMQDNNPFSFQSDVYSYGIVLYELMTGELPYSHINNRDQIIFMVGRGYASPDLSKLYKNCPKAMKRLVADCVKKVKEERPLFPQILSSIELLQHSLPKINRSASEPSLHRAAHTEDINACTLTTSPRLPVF

CC(C)(C)c1[nH]cnc1/C=c1\[nH]c(=O)/c(=C/c2ccccc2)[nH]c1=O [KPU-2, tBu-dehydro-PLH]
EC50 (HT-29 human colon cells; HT-29, Table 6, proliferation of HT-29 cells): 13 nM
EC50 (HT-29 human colon cells; HT-29, Table 9, summary of modification at the o-position, HT-29): 48 nM
EC50 (HT-29 human colon cells; HT-29, Table 10, summary of modification at the m-position, HT-29): 48 nM
EC50 (HT-29 human colon cells; HT-29, read-out: EC50 (nM) HT-29, Table 2): 13 nM
EC50 (HT-29 human colon cells; HT-29, read-out: EC50 (nM) HT-29, Table 3): 13 nM
EC50 (HT-29 human colon cells; HT-29, Table 5, synthetic potent dehydroPLH derivatives): 13 nM
IC50 ([1]; Mus musculus): 37.1 nM
% Cytotoxicity Mean ([1]; maximum cytotoxic effect): 71.8%
% Cytotoxicity Mean ([2]; maximum cytotoxic effect): 64.3%
IC50 ([2]; Homo sapiens): 9.2 nM
% Cytotoxicity Mean (HT29 (human colon tumor); HT-29 Colon, maximum cytotoxic effect): 82.5%
IC50 (HT29 (human colon tumor); Homo sapiens, HT-29 Colon): 9.8 nM
potency on the HT-29 tumor cell line (HT29 (human colon tumor); in words): low nanomolar range
IC50 ([3]; Homo sapiens): 13.8 nM
% Cytotoxicity Mean ([3]; maximum cytotoxic effect): 56.7%
% Cytotoxicity Mean [4]: 70.5%
IC50 ([5]; Homo sapiens): > 20000 nM
% Cytotoxicity Mean ([5]; maximum cytotoxic effect): 45.8%
IC50 ([6]; Homo sapiens): 13.4 nM
% Cytotoxicity Mean ([6]; maximum cytotoxic effect): 60.3%
IC50 [7]: 27.4 nM
IC50 [8]: 37.8 nM
IC50 [9]: 8.17 nM
IC50 [10]: 39.6 nM
IC50 [11]: 27.4 nM
morphological changes of apoptosis [12]: induced the typical morphological changes associated with early stages of apoptosis
concentration inducing DNA laddering [13]: 1 nM
cleavage of PARP (PARP in Jurkat cells): induced cleavage of PARP
kinases inhibited in the primary screen [14]: Four kinases were inhibited by greater than 50%
MGI (metastasis growth inhibition) [15]: 41.6%
tubulin polymerization [16]: inhibit tubulin polymerization
IC50 (c-RAF (human)): 8900 nM
IC50 (CDK1/Cyclin B (human)): 10100 nM
microtubule depolymerization in HuVEC cells (HuVEC): induced microtubule depolymerization
